What was measured:
Format in all cases: in vivo
Conditions in all cases: wettable powder applied 3 days after transplanting, judged after 25 days
[1] = system: transplanted paddy-field rice; test: Test Example 1: crop injury against transplanted paddy-field rice
Method in brief: (§1)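 Herbicidal effect and rice injury were graded on a six-step growth-inhibition scale (0: 0–10% to 5: 91–100%) at 25 days after pot application of water-diluted wettable powder, given 3 days post-transplant under flooded greenhouse conditions.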

Scirpus joncoides = test: Test Example 1: herbicidal effects, paddy-field pot test
Method in brief: as §1

[2] = system: barnyardgrass (Echinochloa oryzicola Vasing.); test: as above
Method in brief: as §1

Cyperus serotinus = test: as above
Method in brief: as §1

[3] = system: annual broad-leaved weeds (Lindernia spp., Rotala indica); test: as above
Method in brief: as §1

| SMILES | Crop injury against transplanted rice ([1]; chemical dosage 12.5 g/a) | Crop injury against transplanted rice ([1]; chemical dosage 25 g/a) | Herbicidal effects Scirpus joncoides (Scirpus joncoides; chemical dosage 12.5 g/a) | Herbicidal effects Scirpus joncoides (Scirpus joncoides; chemical dosage 25 g/a) | Herbicidal effects Barnyard grass ([2]; chemical dosage 12.5 g/a) | Herbicidal effects Barnyard grass ([2]; chemical dosage 25 g/a) | Herbicidal effects Cyperus serotinus (Cyperus serotinus; chemical dosage 12.5 g/a) | Herbicidal effects Cyperus serotinus (Cyperus serotinus; chemical dosage 25 g/a) | Herbicidal effects Broad leaf ([3]; chemical dosage 12.5 g/a) | Herbicidal effects Broad leaf ([3]; chemical dosage 25 g/a) | Crop injury against transplanted rice ([1]; chemical dosage 10 g/a) | Herbicidal effects Scirpus joncoides (Scirpus joncoides; chemical dosage 10 g/a) | Herbicidal effects Barnyard grass ([2]; chemical dosage 10 g/a) | Herbicidal effects Cyperus serotinus (Cyperus serotinus; chemical dosage 10 g/a) | Herbicidal effects Broad leaf ([3]; chemical dosage 10 g/a) | also measured |
| --- | --- | --- | --- | --- | --- | --- | --- | --- | --- | --- | --- | --- | --- | --- | --- | --- |
| CC(C)(C)c1ccccc1Oc1nnc(Cl)cc1O [Example 61] | 0 (Growth inhibition rate; 0 to 10%) | 0 (Growth inhibition rate; 0 to 10%) | 5 (Growth inhibition rate; 91 to 100%) | 5 (Growth inhibition rate; 91 to 100%) | 1 (Growth inhibition rate; 11 to 30%) | 2 (Growth inhibition rate; 31 to 50%) | 5 (Growth inhibition rate; 91 to 100%) | 5 (Growth inhibition rate; 91 to 100%) | 5 (Growth inhibition rate; 91 to 100%) | 5 (Growth inhibition rate; 91 to 100%) | – | – | – | – | – | – |
| O=S(=O)(Oc1cc(Cl)nnc1Oc1ccccc1C1CC1)C(F)(F)F [Example 26] | – | – | – | – | – | – | – | – | – | – | 0 (Growth inhibition rate; 0 to 10%) | 5 (Growth inhibition rate; 91 to 100%) | 4 (Growth inhibition rate; 71 to 90%) | 5 (Growth inhibition rate; 91 to 100%) | 5 (Growth inhibition rate; 91 to 100%) | Crop injury against transplanted rice ([1]; chemical dosage 20 g/a): 0 (Growth inhibition rate; 0 to 10%); Herbicidal effects Scirpus joncoides (Scirpus joncoides; chemical dosage 20 g/a): 5 (Growth inhibition rate; 91 to 100%); Herbicidal effects Barnyard grass ([2]; chemical dosage 20 g/a): 4 (Growth inhibition rate; 71 to 90%); Herbicidal effects Cyperus serotinus (Cyperus serotinus; chemical dosage 20 g/a): 5 (Growth inhibition rate; 91 to 100%); Herbicidal effects Broad leaf ([3]; chemical dosage 20 g/a): 5 (Growth inhibition rate; 91 to 100%) |
| CCCc1ccccc1Oc1nnc(Cl)cc1O [Example 56] | 0 (Growth inhibition rate; 0 to 10%) | 0 (Growth inhibition rate; 0 to 10%) | 2 (Growth inhibition rate; 31 to 50%) | 3 (Growth inhibition rate; 51 to 70%) | 0 (Growth inhibition rate; 0 to 10%) | 0 (Growth inhibition rate; 0 to 10%) | 4 (Growth inhibition rate; 71 to 90%) | 4 (Growth inhibition rate; 71 to 90%) | 4 (Growth inhibition rate; 71 to 90%) | 5 (Growth inhibition rate; 91 to 100%) | – | – | – | – | – | – |
| Oc1cc(Cl)nnc1Oc1cccc2c1OCC2 [Example 189] | – | – | – | – | – | – | – | – | – | – | 3 (Growth inhibition rate; 51 to 70%) | 5 (Growth inhibition rate; 91 to 100%) | 3 (Growth inhibition rate; 51 to 70%) | 5 (Growth inhibition rate; 91 to 100%) | 5 (Growth inhibition rate; 91 to 100%) | Crop injury against transplanted rice ([1]; chemical dosage 5 g/a): 0 (Growth inhibition rate; 0 to 10%); Herbicidal effects Scirpus joncoides (Scirpus joncoides; chemical dosage 5 g/a): 4 (Growth inhibition rate; 71 to 90%); Herbicidal effects Barnyard grass ([2]; chemical dosage 5 g/a): 2 (Growth inhibition rate; 31 to 50%); Herbicidal effects Cyperus serotinus (Cyperus serotinus; chemical dosage 5 g/a): 5 (Growth inhibition rate; 91 to 100%); Herbicidal effects Broad leaf ([3]; chemical dosage 5 g/a): 5 (Growth inhibition rate; 91 to 100%) |
| Oc1cc(Cl)nnc1Oc1ccccc1C1CCC1 [Example 85] | – | – | – | – | – | – | – | – | – | – | 0 (Growth inhibition rate; 0 to 10%) | 3 (Growth inhibition rate; 51 to 70%) | 2 (Growth inhibition rate; 31 to 50%) | 5 (Growth inhibition rate; 91 to 100%) | 4 (Growth inhibition rate; 71 to 90%) | – |
| Cc1ccc(Cl)c(Oc2nnc(Cl)cc2O)c1 [Example 203] | 0 (Growth inhibition rate; 0 to 10%) | 0 (Growth inhibition rate; 0 to 10%) | 5 (Growth inhibition rate; 91 to 100%) | 5 (Growth inhibition rate; 91 to 100%) | 1 (Growth inhibition rate; 11 to 30%) | 2 (Growth inhibition rate; 31 to 50%) | 5 (Growth inhibition rate; 91 to 100%) | 5 (Growth inhibition rate; 91 to 100%) | 5 (Growth inhibition rate; 91 to 100%) | 5 (Growth inhibition rate; 91 to 100%) | – | – | – | – | – | – |
| Cc1ccc(C)c(Oc2nnc(Cl)cc2O)c1 [Example 205] | 0 (Growth inhibition rate; 0 to 10%) | 0 (Growth inhibition rate; 0 to 10%) | 5 (Growth inhibition rate; 91 to 100%) | 5 (Growth inhibition rate; 91 to 100%) | 0 (Growth inhibition rate; 0 to 10%) | 1 (Growth inhibition rate; 11 to 30%) | 5 (Growth inhibition rate; 91 to 100%) | 5 (Growth inhibition rate; 91 to 100%) | 5 (Growth inhibition rate; 91 to 100%) | 5 (Growth inhibition rate; 91 to 100%) | – | – | – | – | – | – |
| CC(C)c1cccc(Cl)c1Oc1nnc(Cl)cc1O [Example 18] | 1 (Growth inhibition rate; 11 to 30%) | 2 (Growth inhibition rate; 31 to 50%) | 3 (Growth inhibition rate; 51 to 70%) | 4 (Growth inhibition rate; 71 to 90%) | 0 (Growth inhibition rate; 0 to 10%) | 1 (Growth inhibition rate; 11 to 30%) | 5 (Growth inhibition rate; 91 to 100%) | 5 (Growth inhibition rate; 91 to 100%) | 5 (Growth inhibition rate; 91 to 100%) | 5 (Growth inhibition rate; 91 to 100%) | – | – | – | – | – | – |
| Oc1cc(Cl)nnc1Oc1ccccc1OC(F)(F)F [Example 125] | – | – | – | – | – | – | – | – | – | – | 0 (Growth inhibition rate; 0 to 10%) | 3 (Growth inhibition rate; 51 to 70%) | 1 (Growth inhibition rate; 11 to 30%) | 4 (Growth inhibition rate; 71 to 90%) | 5 (Growth inhibition rate; 91 to 100%) | Crop injury against transplanted rice ([1]; chemical dosage 20 g/a): 0 (Growth inhibition rate; 0 to 10%); Herbicidal effects Scirpus joncoides (Scirpus joncoides; chemical dosage 20 g/a): 4 (Growth inhibition rate; 71 to 90%); Herbicidal effects Barnyard grass ([2]; chemical dosage 20 g/a): 2 (Growth inhibition rate; 31 to 50%); Herbicidal effects Cyperus serotinus (Cyperus serotinus; chemical dosage 20 g/a): 5 (Growth inhibition rate; 91 to 100%); Herbicidal effects Broad leaf ([3]; chemical dosage 20 g/a): 5 (Growth inhibition rate; 91 to 100%) |
| CCOc1cccc(C2CC2)c1Oc1nnc(Cl)cc1O [Example 277] | – | – | – | – | – | – | – | – | – | – | 0 (Growth inhibition rate; 0 to 10%) | – | 0 (Growth inhibition rate; 0 to 10%) | 5 (Growth inhibition rate; 91 to 100%) | 5 (Growth inhibition rate; 91 to 100%) | Crop injury against transplanted rice ([1]; chemical dosage 20 g/a): 0 (Growth inhibition rate; 0 to 10%); Herbicidal effects Scirpus joncoides (Scirpus joncoides; chemical dosage 20 g/a): 5 (Growth inhibition rate; 91 to 100%); Herbicidal effects Barnyard grass ([2]; chemical dosage 20 g/a): 1 (Growth inhibition rate; 11 to 30%); Herbicidal effects Cyperus serotinus (Cyperus serotinus; chemical dosage 20 g/a): 5 (Growth inhibition rate; 91 to 100%); Herbicidal effects Broad leaf ([3]; chemical dosage 20 g/a): 5 (Growth inhibition rate; 91 to 100%) |
| Cc1ccc(C)c(Oc2nnc(Cl)cc2O)c1C [Example 295] | 0 (Growth inhibition rate; 0 to 10%) | 0 (Growth inhibition rate; 0 to 10%) | 5 (Growth inhibition rate; 91 to 100%) | 5 (Growth inhibition rate; 91 to 100%) | 0 (Growth inhibition rate; 0 to 10%) | 1 (Growth inhibition rate; 11 to 30%) | 5 (Growth inhibition rate; 91 to 100%) | 5 (Growth inhibition rate; 91 to 100%) | 5 (Growth inhibition rate; 91 to 100%) | 5 (Growth inhibition rate; 91 to 100%) | – | – | – | – | – | – |

From US7964531B2, “3-phenoxy-4-pyridazinol derivatives and herbicidal composition containing the same” (Mitsui Chemicals Agro, Inc., priority 2001, dated 2011)
